Active and inactive are the calls of the source. The rule behind the calls is not given here.
How the values were obtained:
MKN-45 [1] = assay: Antitumor activity against human MKN-45 cells xenografted in BALB/c nude mouse assessed as reduction in tumor growth at 10 mg/kg, po administered once daily for 21 days; type: functional, organism-based; details: time 21.0 day
[2] = Downregulation of c-MET protein level in human MKN-45 cells assessed as fold change at 100 nM incubated for 24 hrs by MS-based quantitative proteomics analysis relative to control; type: functional
[3] = molecular target: T1, Protein cereblon/Hepatocyte growth factor receptor (Homo sapiens, UniProt P08581+Q96SW2); assay: PROTAC activity at CRBN/c-MET in human MKN-45 cells assessed as induction of c-MET degradation at 100 nM preincubated with MG132 for 2 hrs followed by compound addition and measured after 24 hrs by Western blot analysis; type: cell-based
Target sequence in this assay (P08581 25-1390 limits assumed): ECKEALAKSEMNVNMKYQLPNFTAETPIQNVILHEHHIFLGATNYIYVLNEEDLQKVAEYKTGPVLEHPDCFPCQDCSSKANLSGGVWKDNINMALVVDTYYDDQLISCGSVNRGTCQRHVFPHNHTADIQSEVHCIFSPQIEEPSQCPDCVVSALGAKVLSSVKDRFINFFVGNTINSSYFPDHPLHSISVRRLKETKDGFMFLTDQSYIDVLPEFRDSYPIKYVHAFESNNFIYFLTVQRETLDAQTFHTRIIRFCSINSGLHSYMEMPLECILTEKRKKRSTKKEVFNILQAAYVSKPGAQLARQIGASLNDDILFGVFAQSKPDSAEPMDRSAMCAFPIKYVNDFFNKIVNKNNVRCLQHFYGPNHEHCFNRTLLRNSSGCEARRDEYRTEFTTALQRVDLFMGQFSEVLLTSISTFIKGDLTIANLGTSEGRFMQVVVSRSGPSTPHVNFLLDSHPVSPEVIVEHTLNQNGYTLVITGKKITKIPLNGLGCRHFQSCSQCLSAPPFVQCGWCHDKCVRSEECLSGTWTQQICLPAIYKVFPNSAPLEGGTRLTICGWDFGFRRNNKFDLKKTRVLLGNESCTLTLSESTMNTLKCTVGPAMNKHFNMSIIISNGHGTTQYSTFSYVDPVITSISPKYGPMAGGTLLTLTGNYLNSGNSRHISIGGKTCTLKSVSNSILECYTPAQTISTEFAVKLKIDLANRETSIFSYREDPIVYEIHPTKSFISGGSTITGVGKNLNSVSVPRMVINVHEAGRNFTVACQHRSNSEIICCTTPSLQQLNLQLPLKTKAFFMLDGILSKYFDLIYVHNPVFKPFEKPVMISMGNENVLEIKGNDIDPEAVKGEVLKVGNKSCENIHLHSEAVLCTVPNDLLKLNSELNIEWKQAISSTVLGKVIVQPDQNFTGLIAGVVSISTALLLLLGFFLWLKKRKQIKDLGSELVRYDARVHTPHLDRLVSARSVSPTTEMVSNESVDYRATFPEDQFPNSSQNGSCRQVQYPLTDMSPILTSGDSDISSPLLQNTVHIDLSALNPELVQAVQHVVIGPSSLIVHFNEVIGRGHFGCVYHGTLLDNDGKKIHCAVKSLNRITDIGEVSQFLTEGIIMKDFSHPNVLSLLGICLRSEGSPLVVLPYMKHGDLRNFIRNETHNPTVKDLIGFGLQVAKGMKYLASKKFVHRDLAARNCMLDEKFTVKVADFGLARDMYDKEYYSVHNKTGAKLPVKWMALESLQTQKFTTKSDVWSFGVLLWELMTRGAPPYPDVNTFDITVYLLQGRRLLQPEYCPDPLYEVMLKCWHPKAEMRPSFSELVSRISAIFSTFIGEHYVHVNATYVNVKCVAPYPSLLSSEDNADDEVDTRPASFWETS
Target sequence in this assay (Q96SW2 whole entry partner): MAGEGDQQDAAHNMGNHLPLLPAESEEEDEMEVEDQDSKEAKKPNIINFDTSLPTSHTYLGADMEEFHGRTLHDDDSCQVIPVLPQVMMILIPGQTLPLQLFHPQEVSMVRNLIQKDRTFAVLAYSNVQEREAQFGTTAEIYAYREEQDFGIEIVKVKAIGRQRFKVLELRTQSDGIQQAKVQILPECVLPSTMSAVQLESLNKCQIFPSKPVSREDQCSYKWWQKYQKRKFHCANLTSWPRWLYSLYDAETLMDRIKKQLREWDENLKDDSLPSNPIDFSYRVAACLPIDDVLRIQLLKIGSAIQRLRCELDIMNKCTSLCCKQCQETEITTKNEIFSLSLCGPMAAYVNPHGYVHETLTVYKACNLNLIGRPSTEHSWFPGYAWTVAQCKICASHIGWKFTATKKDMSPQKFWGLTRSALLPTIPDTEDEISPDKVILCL

[4] = AUC (0 to infinity) in male Sprague-Dawley rat at 10 mg/kg, po measured after 24 hrs by LC-MS/MS analysis; type: ADME, organism-based; details: in vivo
Mus musculus [5] = assay: Downregulation of c-MET protein level in BALB/c nude mouse lung xenografted with human MKN-45 cells at 10 mg/kg, po measured after 48 hrs by Western blot analysis; type: functional, organism-based
[6] = molecular target: T1, Protein cereblon/Hepatocyte growth factor receptor; assay: PROTAC activity at CRBN/c-MET in human MKN-45 cells assessed as induction of c-MET degradation at 100 to 1000 nM incubated for 24 hrs by Western blot analysis relative to control; type: cell-based; details: dose 100-1000 nM
Target sequence in this assay (P08581 25-1390 limits assumed): as the sequence (P08581 25-1390 limits assumed) above
Target sequence in this assay (Q96SW2 whole entry partner): as the sequence (Q96SW2 whole entry partner) above

[7] = molecular target: T1, Protein cereblon/Hepatocyte growth factor receptor; assay: PROTAC activity at CRBN/c-MET in human Hs746T cells assessed as induction of c-MET degradation at 12.5 to 200 nM incubated for 24 hrs by Western blot analysis; type: cell-based; details: dose 12.5-200 nM
Target sequence in this assay (P08581 25-1390 limits assumed): as the sequence (P08581 25-1390 limits assumed) above
Target sequence in this assay (Q96SW2 whole entry partner): as the sequence (Q96SW2 whole entry partner) above

[8] = Cmax in male Sprague-Dawley rat at 10 mg/kg, po measured after 24 hrs by LC-MS/MS analysis; type: ADME, organism-based; details: in vivo
[9] = Tmax in male Sprague-Dawley rat at 10 mg/kg, iv measured after 24 hrs by LC-MS/MS analysis; type: ADME, organism-based; details: in vivo
MKN-45 [10] = assay: Upregulation of HSPG2 protein level in human MKN-45 cells at 100 nM incubated for 24 hrs by MS-based quantitative proteomics analysis; type: functional, cell-based
[11] = molecular target: T1, Protein cereblon/Hepatocyte growth factor receptor; assay: In vivo PROTAC activity at CRBN/c-MET in BALB/c nude mouse xenografted with human MKN-45 cells assessed as decrease in c-MET protein level in tumor at 10 to 40 mg/kg, po administered once daily for 21 days and measured after 24 hrs post last dose by Western blot analysis; type: functional, organism-based; details: dose 10-40 mg/kg, time 22.0 day
Target sequence in this assay (P08581 25-1390 limits assumed): as the sequence (P08581 25-1390 limits assumed) above
Target sequence in this assay (Q96SW2 whole entry partner): as the sequence (Q96SW2 whole entry partner) above

[12] = Oral bioavailability in male Sprague-Dawley rat at 10 mg/kg measured after 24 hrs by LC-MS/MS analysis; type: ADME, organism-based; details: in vivo
[13] = Half-life in male Sprague-Dawley rat at 10 mg/kg, iv measured after 24 hrs by LC-MS/MS analysis; type: ADME, organism-based; details: in vivo
[14] = molecular target: T1, Protein cereblon/Hepatocyte growth factor receptor; assay: PROTAC activity at CRBN/c-MET in human MKN-45 cells assessed as induction of c-MET degradation by measuring maximal efficacy incubated for 24 hrs by Western blot analysis relative to control; type: cell-based
Target sequence in this assay (P08581 25-1390 limits assumed): as the sequence (P08581 25-1390 limits assumed) above
Target sequence in this assay (Q96SW2 whole entry partner): as the sequence (Q96SW2 whole entry partner) above

MKN-45 [15] = assay: Downregulation of CHCHD2 protein level in human MKN-45 cells at 100 nM incubated for 24 hrs by MS-based quantitative proteomics analysis; type: functional, cell-based
[16] = molecular target: T1, Protein cereblon/Hepatocyte growth factor receptor; assay: PROTAC activity at CRBN/c-MET in human MKN-45 cells assessed as induction of c-MET degradation at 6.25 to 100 nM incubated for 24 hrs by Western blot analysis; type: cell-based; details: dose 6.25-100 nM
Target sequence in this assay (P08581 25-1390 limits assumed): as the sequence (P08581 25-1390 limits assumed) above
Target sequence in this assay (Q96SW2 whole entry partner): as the sequence (Q96SW2 whole entry partner) above

Mus musculus [17] = assay: Downregulation of c-MET protein level in BALB/c nude mouse stomach xenografted with human MKN-45 cells at 10 mg/kg, po measured after 48 hrs by Western blot analysis; type: functional, organism-based
[18] = molecular target: T1, Protein cereblon/Hepatocyte growth factor receptor; assay: PROTAC activity at CRBN/c-MET in human PC-3 cells assessed as induction of c-MET degradation at 12.5 to 100 nM incubated for 24 hrs by Western blot analysis; type: cell-based; details: dose 12.5-100 nM
PC-9 [19] = assay: Induction of apoptosis in human PC-9 cells at 3.125 to 50 nM incubated for 48 hrs by Annexin V-FITC/PI staining based flow cytometric analysis; type: functional, cell-based; details: dose 3.125-50 nM
[20] = molecular target: T1, Protein cereblon/Hepatocyte growth factor receptor; assay: PROTAC activity at CRBN/c-MET in human MKN-45 cells assessed as induction of c-MET degradation at 100 nM preincubated with MLN4924 for 2 hrs followed by compound addition and measured after 24 hrs by Western blot analysis; type: cell-based
[21] = molecular target: T1, Protein cereblon/Hepatocyte growth factor receptor; assay: PROTAC activity at CRBN/c-MET in human MKN-45 cells assessed as induction of c-MET degradation at 100 nM preincubated with pomalidomide for 2 hrs followed by compound addition and measured after 24 hrs by Western blot analysis; type: cell-based
[22] = molecular target: T1, Protein cereblon/Hepatocyte growth factor receptor; assay: PROTAC activity at CRBN/c-MET in human A549 cells assessed as induction of c-MET degradation at 12.5 to 200 nM incubated for 24 hrs by Western blot analysis; type: cell-based; details: dose 12.5-200 nM
[23] = Toxicity in BALB/c nude mouse xenografted with human MKN-45 cells assessed as effect on heart morphology at 10 to 40 mg/kg, po administered once daily for 21 days by H and E staining based analysis; type: organism-based; details: in vivo, 504 h, dose 10-40 mg/kg, time 21 day
PC-9 [24] = assay: Cell cycle arrest in human PC-9 cells assessed as accumulation of cells at G0/G1 phase incubated for 48 hrs by PI staining based flow cytometric analysis; type: functional; details: dose 3.125-50 nM
MKN-45 [25] = assay: Antiproliferative activity against human MKN-45 cells incubated for 72 hrs by CCK8 assay; type: functional, cell-based; details: MKN-45, 72 h
[26] = AUC (0 to infinity) in male Sprague-Dawley rat at 10 mg/kg, iv measured after 24 hrs by LC-MS/MS analysis; type: ADME, organism-based; details: in vivo
MKN-45 [27] = assay: Downregulation of ULK2B protein level in human MKN-45 cells at 100 nM incubated for 24 hrs by MS-based quantitative proteomics analysis; type: functional, cell-based
[28] = MRT (0 to infinity) in male Sprague-Dawley rat at 10 mg/kg, iv measured after 24 hrs by LC-MS/MS analysis; type: ADME, organism-based; details: in vivo
MKN-45 [29] = assay: Antitumor activity against human MKN-45 cells xenografted in BALB/c nude mouse assessed as reduction in tumor growth administered orally as once daily dose for 21 days; type: functional; details: dose 10-40 mg/kg, route po, time 21.0 day
[30] = molecular target: T1, Protein cereblon/Hepatocyte growth factor receptor; assay: PROTAC activity at CRBN/c-MET in human MKN-45 cells assessed as induction of c-MET degradation at 100 nM incubated for 2 to 16 hrs by Western blot analysis; type: cell-based; details: time 2-16 hrs
[31] = MRT (0 to infinity) in male Sprague-Dawley rat at 10 mg/kg, po measured after 24 hrs by LC-MS/MS analysis; type: ADME, organism-based; details: in vivo
MKN-45 [32] = assay: Upregulation of PDCD4 protein level in human MKN-45 cells at 100 nM incubated for 24 hrs by MS-based quantitative proteomics analysis; type: functional, cell-based
[33] = molecular target: T1, Protein cereblon/Hepatocyte growth factor receptor; assay: PROTAC activity at CRBN/c-MET in human MKN-45 cells assessed as induction of c-MET degradation incubated for 24 hrs by Western blot analysis; type: cell-based
Target sequence in this assay (P08581 whole entry): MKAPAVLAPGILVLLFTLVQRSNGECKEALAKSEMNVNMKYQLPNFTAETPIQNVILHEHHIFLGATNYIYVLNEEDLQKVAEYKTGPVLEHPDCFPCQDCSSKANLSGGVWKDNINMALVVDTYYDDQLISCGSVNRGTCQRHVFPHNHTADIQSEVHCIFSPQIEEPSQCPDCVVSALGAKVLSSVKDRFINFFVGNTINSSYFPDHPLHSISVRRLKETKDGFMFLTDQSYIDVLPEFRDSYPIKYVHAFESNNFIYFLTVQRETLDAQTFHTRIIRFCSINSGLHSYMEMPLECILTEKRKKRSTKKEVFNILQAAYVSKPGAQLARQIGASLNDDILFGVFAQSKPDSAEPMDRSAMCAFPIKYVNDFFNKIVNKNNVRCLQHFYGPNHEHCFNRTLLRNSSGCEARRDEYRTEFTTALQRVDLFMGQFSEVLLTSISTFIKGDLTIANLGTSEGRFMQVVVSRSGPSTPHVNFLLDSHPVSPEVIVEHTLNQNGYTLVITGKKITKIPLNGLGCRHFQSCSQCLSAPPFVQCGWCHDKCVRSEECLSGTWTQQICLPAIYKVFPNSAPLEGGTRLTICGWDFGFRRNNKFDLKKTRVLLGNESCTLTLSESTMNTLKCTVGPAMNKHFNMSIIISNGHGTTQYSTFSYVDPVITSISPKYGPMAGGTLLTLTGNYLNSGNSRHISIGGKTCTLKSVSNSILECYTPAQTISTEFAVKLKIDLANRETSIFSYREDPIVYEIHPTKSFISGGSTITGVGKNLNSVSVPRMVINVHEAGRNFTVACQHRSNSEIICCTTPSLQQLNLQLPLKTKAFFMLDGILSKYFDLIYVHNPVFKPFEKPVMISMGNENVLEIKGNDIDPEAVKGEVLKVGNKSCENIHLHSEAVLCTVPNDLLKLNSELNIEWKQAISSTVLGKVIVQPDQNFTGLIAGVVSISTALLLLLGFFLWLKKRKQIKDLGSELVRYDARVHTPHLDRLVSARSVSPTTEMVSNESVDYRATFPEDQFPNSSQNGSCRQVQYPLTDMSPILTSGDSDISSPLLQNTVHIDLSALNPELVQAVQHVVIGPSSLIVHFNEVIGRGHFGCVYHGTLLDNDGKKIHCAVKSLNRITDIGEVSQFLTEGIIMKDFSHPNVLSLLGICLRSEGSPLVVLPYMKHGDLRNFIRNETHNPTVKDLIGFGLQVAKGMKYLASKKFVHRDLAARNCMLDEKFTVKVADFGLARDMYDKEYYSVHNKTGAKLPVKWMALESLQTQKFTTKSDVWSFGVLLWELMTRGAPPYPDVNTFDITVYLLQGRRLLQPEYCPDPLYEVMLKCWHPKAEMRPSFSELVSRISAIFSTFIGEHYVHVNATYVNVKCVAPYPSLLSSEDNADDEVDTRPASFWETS
Target sequence in this assay (Q96SW2 whole entry): as the sequence (Q96SW2 whole entry partner) above

[34] = Downregulation of c-MET protein level in human MKN-45 cells assessed as residual activity at 100 nM incubated for 24 hrs by MS-based quantitative proteomics analysis relative to control; type: functional

Q: What does the source list for O=C1CCC(N2C(=O)c3ccc(N4CCN(CC5CCN(C(=O)c6ccc(-c7cnc8ncc(Cc9ccc%10ncccc%10c9)n8n7)cc6F)CC5)CC4)cc3C2=O)C(=O)N1 (centres undefined)?
A: Activity (MKN-45 [1]): Active; Significant Effect Observed; fold change (FC) [2]: 29.6; Activity [3]: inactive; AUC(0-inf) [4]: 411 ng·h/mL; Activity (Mus musculus [5]): Not active; Favorable Tissue Specificity Of Compound Observed; Activity [6]: 100%; Activity [7]: Active; Cmax [8]: 70.7 ng/mL; Tmax [9]: 4.8 min; Activity (MKN-45 [10]): Active; Activity [11]: Active; bioavailability [12]: 16.3%; half-life [13]: 5.35 h; Emax [14]: 96.8%; Activity (MKN-45 [15]): Active; Activity [16]: Active; Activity (Mus musculus [17]): Not active; Favorable Tissue Specificity Of Compound Observed; Activity [18]: inactive; Activity (PC-9 [19]): Active; Little Effect Observed; Activity [20]: inactive; Activity [21]: inactive; Activity [22]: inactive; Activity [23]: Non-toxic; Activity (PC-9 [24]): Dose-dependent-effect; IC50 (MKN-45 [25]): 4.37 nM; AUC(0-inf) [26]: 2520 ng·h/mL; Activity (MKN-45 [27]): Active; MRT inf [28]: 2.56 h; Activity (MKN-45 [29]): Dose-dependent-effect; Activity [30]: Active; MRT inf [31]: 6.66 h; Activity (MKN-45 [32]): Active; DC50 [33]: 6.21 nM; Activity [34]: 3.38%
